Laboratory results from ChEMBL document CHEMBL4130596, “Adding a Hydrogen Bond May Not Help: Naphthyridinone vs Quinoline Inhibitors of Macrophage Migration Inhibitory Factor” (ACS Med Chem Lett, 2017).
In brackets after ≈: the same amount, converted by molar mass.

Assay: Aqueous solubility of the compound in Britton-Robinson buffer after 48 hrs at pH 6.5 by UV-vis spectrophotometry based shake flask method
Format: physicochemical

## O=C(O)Cn1ccc2ccc(-c3cn(-c4ccc(O)c(F)c4)nn3)nc2c1=O
  solubility thermodynamic at 48 h: 288 µg/mL (≈ 755 µM)
